Test system: Acinetobacter baumannii-calcoaceticus species complex clinical isolates
Assay: MIC of triple combinations (Compound 1, sulbactam, meropenem or cefepime), 141 clinical isolates
Type: cell-based
Settings: Acinetobacter
Excerpt: For a more comprehensive assessment of the ability of test compounds to potentiate sulbactam in triple combinations with β-lactams additional MIC assays were utilized.

CC1(C)[C@H](C(=O)O)N2C(=O)C[C@H]2S1(=O)=O [SUL, Sulbactam]
128 µg/mL: MIC
32 µg/mL: MIC (strain 993131, Cmpd 1 at 4 μg/mL in combinations) | MIC (strain 993139, Cmpd 1 at 4 μg/mL in combinations) | MIC (strain 996707, Cmpd 1 at 4 μg/mL in combinations) | MIC (strain 996869, Cmpd 1 at 4 μg/mL in combinations) | MIC (strain 997574, Cmpd 1 at 4 μg/mL in combinations) | MIC (strain 998907, Cmpd 1 at 4 μg/mL in combinations) | MIC (strain 999343, Cmpd 1 at 4 μg/mL in combinations) | MIC (strain 1001007, Cmpd 1 at 4 μg/mL in combinations) | MIC (strain 1001143, Cmpd 1 at 4 μg/mL in combinations) | MIC (strain 1003787, Cmpd 1 at 4 μg/mL in combinations) | MIC (strain 1005265, Cmpd 1 at 4 μg/mL in combinations) | MIC (strain 1007660, Cmpd 1 at 4 μg/mL in combinations) | MIC (strain 1008510, Cmpd 1 at 4 μg/mL in combinations) | MIC (strain 1008730, Cmpd 1 at 4 μg/mL in combinations) | MIC (strain 1010383, Cmpd 1 at 4 μg/mL in combinations) | MIC (strain 1014143, Cmpd 1 at 4 μg/mL in combinations) | MIC (strain 1014866, Cmpd 1 at 4 μg/mL in combinations) | MIC (strain 1014878, Cmpd 1 at 4 μg/mL in combinations) | MIC (strain 1014890, Cmpd 1 at 4 μg/mL in combinations) | MIC (strain 1016836, Cmpd 1 at 4 μg/mL in combinations) | MIC (strain 1017679, Cmpd 1 at 4 μg/mL in combinations) | MIC (strain 1018804, Cmpd 1 at 4 μg/mL in combinations) | MIC (strain 1018807, Cmpd 1 at 4 μg/mL in combinations) | MIC (strain 1023074, Cmpd 1 at 4 μg/mL in combinations) | MIC (strain 1024119, Cmpd 1 at 4 μg/mL in combinations) | MIC (strain 1027590, Cmpd 1 at 4 μg/mL in combinations) | MIC (strain 1029770, Cmpd 1 at 4 μg/mL in combinations) | MIC (strain 1030945, Cmpd 1 at 4 μg/mL in combinations) | MIC (strain 1031136, Cmpd 1 at 4 μg/mL in combinations) | MIC (strain 1031211, Cmpd 1 at 4 μg/mL in combinations) | MIC (strain 1031238, Cmpd 1 at 4 μg/mL in combinations) | MIC (strain 1031566, Cmpd 1 at 4 μg/mL in combinations) | MIC (strain 1034048, Cmpd 1 at 4 μg/mL in combinations) | MIC (strain 1034880, Cmpd 1 at 4 μg/mL in combinations) | MIC (strain 1034912, Cmpd 1 at 4 μg/mL in combinations) | MIC (strain 1034913, Cmpd 1 at 4 μg/mL in combinations) | MIC (strain 1034925, Cmpd 1 at 4 μg/mL in combinations) | MIC (strain 1034951, Cmpd 1 at 4 μg/mL in combinations) | MIC (strain 1034962, Cmpd 1 at 4 μg/mL in combinations) | MIC (strain 1035144, Cmpd 1 at 4 μg/mL in combinations)
4 µg/mL: MIC (strain 1018109, Cmpd 1 at 4 μg/mL in combinations)
8 µg/mL: MIC (strain 999306, Cmpd 1 at 4 μg/mL in combinations) | MIC (strain 1003557, Cmpd 1 at 4 μg/mL in combinations) | MIC (strain 1013022, Cmpd 1 at 4 μg/mL in combinations) | MIC (strain 1027234, Cmpd 1 at 4 μg/mL in combinations) | MIC (strain 1027603, Cmpd 1 at 4 μg/mL in combinations) | MIC (strain 1027748, Cmpd 1 at 4 μg/mL in combinations)
64 µg/mL: MIC (strain 996612, Cmpd 1 at 4 μg/mL in combinations) | MIC (strain 998898, Cmpd 1 at 4 μg/mL in combinations) | MIC (strain 1002247, Cmpd 1 at 4 μg/mL in combinations) | MIC (strain 1002952, Cmpd 1 at 4 μg/mL in combinations) | MIC (strain 1004867, Cmpd 1 at 4 μg/mL in combinations) | MIC (strain 1008756, Cmpd 1 at 4 μg/mL in combinations) | MIC (strain 1014815, Cmpd 1 at 4 μg/mL in combinations) | MIC (strain 1018801, Cmpd 1 at 4 μg/mL in combinations) | MIC (strain 1018802, Cmpd 1 at 4 μg/mL in combinations) | MIC (strain 1018806, Cmpd 1 at 4 μg/mL in combinations) | MIC (strain 1018851, Cmpd 1 at 4 μg/mL in combinations) | MIC (strain 1028193, Cmpd 1 at 4 μg/mL in combinations) | MIC (strain 1030928, Cmpd 1 at 4 μg/mL in combinations) | MIC (strain 1031167, Cmpd 1 at 4 μg/mL in combinations) | MIC (strain 1032761, Cmpd 1 at 4 μg/mL in combinations) | MIC (strain 1033979, Cmpd 1 at 4 μg/mL in combinations) | MIC (strain 1034916, Cmpd 1 at 4 μg/mL in combinations)
16 µg/mL: MIC (strain 990089, Cmpd 1 at 4 μg/mL in combinations) | MIC (strain 994180, Cmpd 1 at 4 μg/mL in combinations) | MIC (strain 994181, Cmpd 1 at 4 μg/mL in combinations) | MIC (strain 995771, Cmpd 1 at 4 μg/mL in combinations) | MIC (strain 998107, Cmpd 1 at 4 μg/mL in combinations) | MIC (strain 998532, Cmpd 1 at 4 μg/mL in combinations) | MIC (strain 1001611, Cmpd 1 at 4 μg/mL in combinations) | MIC (strain 1002208, Cmpd 1 at 4 μg/mL in combinations) | MIC (strain 1002688, Cmpd 1 at 4 μg/mL in combinations) | MIC (strain 1003662, Cmpd 1 at 4 μg/mL in combinations) | MIC (strain 1005290, Cmpd 1 at 4 μg/mL in combinations) | MIC (strain 1008508, Cmpd 1 at 4 μg/mL in combinations) | MIC (strain 1010245, Cmpd 1 at 4 μg/mL in combinations) | MIC (strain 1011959, Cmpd 1 at 4 μg/mL in combinations) | MIC (strain 1013035, Cmpd 1 at 4 μg/mL in combinations) | MIC (strain 1013055, Cmpd 1 at 4 μg/mL in combinations) | MIC (strain 1013322, Cmpd 1 at 4 μg/mL in combinations) | MIC (strain 1014646, Cmpd 1 at 4 μg/mL in combinations) | MIC (strain 1016545, Cmpd 1 at 4 μg/mL in combinations) | MIC (strain 1023034, Cmpd 1 at 4 μg/mL in combinations) | MIC (strain 1023207, Cmpd 1 at 4 μg/mL in combinations) | MIC (strain 1023329, Cmpd 1 at 4 μg/mL in combinations) | MIC (strain 1024215, Cmpd 1 at 4 μg/mL in combinations) | MIC (strain 1026990, Cmpd 1 at 4 μg/mL in combinations) | MIC (strain 1026992, Cmpd 1 at 4 μg/mL in combinations) | MIC (strain 1029913, Cmpd 1 at 4 μg/mL in combinations) | MIC (strain 1030427, Cmpd 1 at 4 μg/mL in combinations) | MIC (strain 1031177, Cmpd 1 at 4 μg/mL in combinations) | MIC (strain 1031191, Cmpd 1 at 4 μg/mL in combinations) | MIC (strain 1032669, Cmpd 1 at 4 μg/mL in combinations) | MIC (strain 1033340, Cmpd 1 at 4 μg/mL in combinations) | MIC (strain 1034931, Cmpd 1 at 4 μg/mL in combinations)
